These results are taken from ChEMBL document CHEMBL4043225, “Identification of potent, nonabsorbable agonists of the calcium-sensing receptor for GI-specific administration” (Bioorg Med Chem Lett, 2017).

Structures are written as SMILES. pEC50: −log10 of the molar value.

Data set [1] is described as follows: Half-life in Sprague-Dawley rat cecal homogenates at 10 uM by LC-MS/MS analysis. In kind it is ADME, tissue-based, Caecum.
Data set [2] has as its target T1, Extracellular calcium-sensing receptor (Rattus norvegicus, UniProt P48442).
T1 sequence (P48442 whole entry): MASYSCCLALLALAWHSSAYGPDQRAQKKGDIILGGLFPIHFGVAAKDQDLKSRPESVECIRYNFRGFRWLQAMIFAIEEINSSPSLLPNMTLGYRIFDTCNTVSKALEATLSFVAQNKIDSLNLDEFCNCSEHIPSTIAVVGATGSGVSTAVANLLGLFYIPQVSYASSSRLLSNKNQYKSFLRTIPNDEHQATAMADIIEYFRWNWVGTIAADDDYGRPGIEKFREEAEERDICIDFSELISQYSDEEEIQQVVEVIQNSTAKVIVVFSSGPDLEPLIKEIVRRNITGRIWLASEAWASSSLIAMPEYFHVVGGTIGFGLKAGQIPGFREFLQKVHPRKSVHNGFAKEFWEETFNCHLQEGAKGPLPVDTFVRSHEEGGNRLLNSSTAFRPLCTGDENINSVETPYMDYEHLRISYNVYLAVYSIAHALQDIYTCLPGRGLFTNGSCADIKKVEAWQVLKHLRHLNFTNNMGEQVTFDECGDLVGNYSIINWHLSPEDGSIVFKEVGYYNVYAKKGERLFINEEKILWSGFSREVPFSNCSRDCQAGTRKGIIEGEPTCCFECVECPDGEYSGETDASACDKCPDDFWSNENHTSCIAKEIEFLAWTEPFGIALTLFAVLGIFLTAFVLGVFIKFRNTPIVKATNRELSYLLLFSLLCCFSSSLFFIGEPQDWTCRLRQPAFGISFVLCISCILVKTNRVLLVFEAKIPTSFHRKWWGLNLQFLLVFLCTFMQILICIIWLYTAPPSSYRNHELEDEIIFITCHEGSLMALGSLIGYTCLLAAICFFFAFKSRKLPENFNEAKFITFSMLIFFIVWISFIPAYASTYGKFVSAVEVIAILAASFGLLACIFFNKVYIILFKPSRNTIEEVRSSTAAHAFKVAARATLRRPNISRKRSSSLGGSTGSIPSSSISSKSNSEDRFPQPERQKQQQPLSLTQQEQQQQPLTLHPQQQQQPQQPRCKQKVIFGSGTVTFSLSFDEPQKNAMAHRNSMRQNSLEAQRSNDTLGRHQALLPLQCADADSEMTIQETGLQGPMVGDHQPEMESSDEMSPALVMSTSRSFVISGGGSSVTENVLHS
In words: (§1) Agonist activity at rat CaSR expressed in HEK293 cells assessed as increase in intracellular calcium mobilization by fluo-4AM dye based FLIPR assay. Type of data set: functional, cell-based.

The target of data set [3] is T2, Extracellular calcium-sensing receptor (Rattus norvegicus) (UniProt P48442).
T2 sequence (whole entry): T1 sequence (P48442 whole entry)
The description is as §1. Type of data set: functional, cell-based.

Data set [4] is described as follows: AUC in CD rat portal vein at 10 mg/kg, po administered via gavage. In kind it is ADME, organism-based.
Data set [5] can be described thus: Aqueous solubility of the compound in SGF. Type of data set: physicochemical.
A short description of data set [6]: Cmax in CD rat systemic circulation at 30 mg/kg, po administered via gavage. Type of data set: ADME, organism-based. Also noted: dose 30 mg/kg, route oral.
A further data set concerns Rattus norvegicus. In words: Unbound Cmax in CD rat portal vein at 10 mg/kg, po administered via gavage. In kind it is ADME, organism-based. The note with it: in vivo.
Data set [7] in a line: Protein binding in CD rat plasma at 10 mg/kg, administered via gavage. Type of data set: ADME, organism-based. Conditions: po, read-out: PPB (converted).
The target of data set [8] is T3, Extracellular calcium-sensing receptor (Mus musculus) (UniProt Q9QY96).
T3 sequence (whole entry): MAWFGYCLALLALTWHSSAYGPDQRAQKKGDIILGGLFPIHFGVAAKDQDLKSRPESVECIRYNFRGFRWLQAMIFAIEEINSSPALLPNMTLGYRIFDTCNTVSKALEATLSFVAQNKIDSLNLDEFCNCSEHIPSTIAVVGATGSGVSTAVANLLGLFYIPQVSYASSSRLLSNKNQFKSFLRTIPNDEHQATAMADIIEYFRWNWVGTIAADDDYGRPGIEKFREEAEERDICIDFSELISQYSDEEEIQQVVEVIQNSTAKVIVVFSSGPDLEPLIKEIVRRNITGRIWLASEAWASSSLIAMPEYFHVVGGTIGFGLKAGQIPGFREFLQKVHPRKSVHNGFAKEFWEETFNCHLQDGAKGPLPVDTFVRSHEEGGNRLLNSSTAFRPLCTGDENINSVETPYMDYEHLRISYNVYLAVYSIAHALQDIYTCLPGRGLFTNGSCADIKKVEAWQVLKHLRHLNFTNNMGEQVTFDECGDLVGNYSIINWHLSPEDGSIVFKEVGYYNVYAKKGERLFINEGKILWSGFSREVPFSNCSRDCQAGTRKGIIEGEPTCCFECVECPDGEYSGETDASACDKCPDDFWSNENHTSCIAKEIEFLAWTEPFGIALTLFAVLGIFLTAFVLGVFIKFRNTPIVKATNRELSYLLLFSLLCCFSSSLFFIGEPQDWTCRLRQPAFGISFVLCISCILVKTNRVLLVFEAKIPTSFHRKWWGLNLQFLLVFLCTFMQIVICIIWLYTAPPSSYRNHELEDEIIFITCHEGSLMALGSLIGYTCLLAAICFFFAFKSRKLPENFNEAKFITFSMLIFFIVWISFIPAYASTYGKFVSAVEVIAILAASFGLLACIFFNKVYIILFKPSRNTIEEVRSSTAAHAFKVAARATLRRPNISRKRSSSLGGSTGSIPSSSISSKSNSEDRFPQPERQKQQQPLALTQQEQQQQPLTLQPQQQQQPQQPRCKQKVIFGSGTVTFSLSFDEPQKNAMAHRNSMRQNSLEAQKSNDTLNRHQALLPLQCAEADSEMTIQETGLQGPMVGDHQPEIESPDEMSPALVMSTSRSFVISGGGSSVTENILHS
In words: (§2) Agonist activity at mouse CaSR expressed in HEK293 cells assessed as increase in intracellular calcium mobilization by fluo-4AM dye based FLIPR assay. Type of data set: functional, cell-based.

Data set [9] deals with T4, Extracellular calcium-sensing receptor (Mus musculus, UniProt Q9QY96).
T4 sequence (Q9QY96 whole entry): T3 sequence (whole entry)
The data set is described as §2. Type of data set: functional, cell-based.

Data set [10] is described as follows: Drug recovery in CD rat feces at 30 mg/kg, po administered via gavage measured by LC-MS/MS analysis. Type of data set: ADME, organism-based. Conditions: read-out: Drug recovery.
Data set [11] can be described thus: AUC in CD rat systemic circulation at 10 mg/kg, po administered via gavage. Type of data set: ADME, organism-based.

For the compound `C[C@@H](N[C@H]1CCN(c2ccc(C(=O)NCCCN3CCC(C(=O)O)CC3)cc2)C1)c1cccc2ccccc12`, the half-life (as a rule, the time in which the quantity being followed falls by half) at 10 µM in [1] is more than 12 h. Further, the negative logarithm of the EC50 (pEC50) (usually −log10 of the EC50, conventionally taken in molar units) is 6.50 in data set [2] and 6.60 in [9]. Further, the %max stood at 66% in data set [3] and 62% in data set [8]. The AUC (as a rule, concentration integrated over time) in [4] came to 265 ng·h/mL; in data set [11], 266 ng·h/mL. Further, the solubility (commonly the concentration that dissolves in the medium under given conditions) in [5] is more than 1000 µg/mL. In [6], the Cmax (as a rule, the highest concentration seen after dosing) is 48 ng/mL. Moreover, in the data set on Rattus norvegicus, the fCmax was determined as 7 nM. The fraction unbound in data set [7] is 0.07. Further, the dose excreted in [10] was found to be 86.3%.
